According to BindingDB's records for doi:10.1021/jm030817d (Glaxosmithkline Pharmaceuticals, 2003):

These compounds were tested against D(3) dopamine receptor (Homo sapiens, UniProt P35462) (assay: Binding affinity against human Dopamine receptor D3 expressed in CHO cells by using [125I]iodosulpiride as radioligand).
Chain of D(3) dopamine receptor (P35462 as listed by the source): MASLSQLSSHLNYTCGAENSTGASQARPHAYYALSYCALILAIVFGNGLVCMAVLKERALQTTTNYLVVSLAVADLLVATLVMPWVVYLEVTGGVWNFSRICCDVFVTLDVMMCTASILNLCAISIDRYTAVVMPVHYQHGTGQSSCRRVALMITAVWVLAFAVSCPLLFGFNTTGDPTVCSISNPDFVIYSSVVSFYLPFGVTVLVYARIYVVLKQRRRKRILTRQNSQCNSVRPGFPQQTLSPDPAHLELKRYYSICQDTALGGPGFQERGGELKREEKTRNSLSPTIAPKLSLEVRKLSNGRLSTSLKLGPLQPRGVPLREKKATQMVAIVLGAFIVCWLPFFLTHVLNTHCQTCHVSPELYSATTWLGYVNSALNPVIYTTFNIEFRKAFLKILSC

Ki [nM] | SMILES
1.3 | CS(=O)(=O)c1ccc2c(c1)CCN(CC[C@H]1CC[C@H](NC(=O)C=Cc3ccccc3F)CC1)CC2
1.3 | CS(=O)(=O)Oc1ccc2c(c1)CCN(CC[C@H]1CC[C@H](NC(=O)C=Cc3ccccc3F)CC1)CC2
1.3 | COc1ccccc1C=CC(=O)N[C@H]1CC[C@H](CCN2CCc3ccc(OS(C)(=O)=O)cc3CC2)CC1
1.3 | CS(=O)(=O)Oc1ccc2c(c1)CCN(CC[C@H]1CC[C@H](NC(=O)C=Cc3cccc(F)c3)CC1)CC2
